The source of these data is patent US20020177625A1, “Class of glaucoma drugs to enhance aqueous humor outflow and lower intra-ocular pressure” (The Regents of the University of California, a California …, priority 2001, published 2002).

For experiment [1], the system named is human TM cells. Kind of experiment: Whole cell patch clamp ion conductances of human TM cells. Conditions: human TM cells. The class given is cell-based. The procedure:
Further studies conducted with agents known to block Cl and K channels attenuate the swelling-activated regulatory volume decrease in TM cells and niflumic acid reduces both cell volume and intracellular [Cl] of TM cells. In these studies, human TM cells were cultured from donor eyes and used between passages three and eight. Routine whole cell patch clamp methods were used to assess conductances of TM cells in isotonic (290 mOsm) and hypotonic (230 mOsm) media, with or without NPPB, DIDS, TEA or niflumic acid. Conductances were determined from current/voltage plots, generated using a ramp protocol. […] The reversal potential observed in the presence of hypotonic medium was close to the calculated reversal potential for Cl. Switching to an external medium containing reduced Cl shifted the reversal potential toward that calculated for the low Cl medium. Treating the TM cells with the Cl channel blocker NPPB (100 μM) abolished the swelling-activated conductance in a manner reversed by subsequent washout of NPPB. […] Finally, treatment of the cells with the K channel blocker TEA (1 mM) also abolished the niflumic acid-activated TM cell conductance.
Human TM and SC cells grown to subconfluence are gently trypsinized on the day of the experiment and immediately exposed to trypsin-neutralizing solution and then allowed to settle onto standard square (22×22-mm) glass coverslips for 30 minutes before use. Routine patch clamp methods were used as described previously Barakat, A. I., et al., Circulation Research, 85: 820-828, 1999; Hamill, O. P. et al., Pflügers Archives, 391: 85-100, 1981; Mauro, T. et al., J of Invest. Dermatology, 105: 203-208, 1995; Pappone, P. A. et al., J. of Physiology, 306:377-410, 1980; Pappone, P. A. et al., J of Gen. Physiology, 106: 231-258, 1995; Pappone, P. A. et al., Amer. J. of Physiology: Cell Physiology, 264: C1014-C1019, 1993; Wilson, S. M. et al., J. of Gen. Physiology, 113: 125-138, 1999. Using the whole cell patch clamp mode, conductances were assessed for isotonic and hypotonic media. By assessing current/voltage (I/V) relationships and reversal potentials for the TM and SC cells while using specific concentrations of Cl in the pipette and bath media, the nature of the conductances observed can be determined.
Whole cell currents were measured at room temperature in a Warner recording/perfusion chamber (Warner Instrument Corp.) using standard whole-cell patch clamp techniques as described previously, Lucero, M. T. et al., J. of Gen. Physiology, 95:523-544, 1999. Thick-walled borosilicate capillaries (Sutter Instruments, Inc., Novato, Calif.) were used to manufacture pipettes with resistances of 3 to 5 MW. The voltage offset between the patch pipette and the bath solution were nulled immediately before patch formation. An agar bridge containing […] KCl was used to ground the bath solution. Voltages were recorded from a patch-clamp amplifier (AXOPATCH 200A, Axon Instruments). Data was collected on a Macintosh personal computer using Pulse+Pulsefit software (HEKA Elektronik). Whole-cell currents were recorded from single (sub confluent) cells with membrane capacitances nulled through the patch-clamp amplifier. The voltage ramp protocol included a voltage step from the holding potential to +60 mV for 40 ms followed by a ramp to −100 mV over a period of 400 ms followed by a return to the holding potential. During the protocol, voltage ramps were conducted once every 5 seconds for 10 minutes, yielding 120 traces. Conductances were computed by taking the derivative of a least-squares straight line fit to the I-V data plots using Igor Pro Software (Wavemetrics, Inc.). In cases in which the I-V plots are not linear over the entire voltage ramp (as in FIGS. 6AB), computation of the whole-cell conductance were restricted to a linear range, typically 0 to +60 mV. […]

For experiment [2], the system named is human TM cells. Kind of experiment: Regulatory volume decrease (RVD) of human TM cells in hypotonic medium (electronic cell sizing). The settings on record: hypotonic medium (200 mOsm), agent at 1 mM. It counts as cell-based. The procedure: (§1) By the second method, TM cells were trypsinized briefly in Ca-free medium, then rinsed with medium containing trypsin inhibitor and suspended in Hepes MEM. Mean cell volumes were then analyzed by electronic cell sizing on a COULTER COUNTER™ radioassay (Model ZM) with channelizer (C256), using at least 50,000 cells per data point and an orifice diameter of 140 μm. Aliquots of suspended cells were diluted into Hepes MEM containing the tonicity and/or agents to be evaluated. Mean cell volumes of each suspension aliquot were followed over time, starting at 1 minute after addition of cells to the assay media. Cell suspensions were maintained at 37° C. throughout the assay period. Absolute volumes (picoliters/cell) were calculated from distribution curves of cell diameter, using a standard curve generated by polystyrene latex beads of known diameter.
In FIG. 7A, cells were exposed to isotonic medium (300 mOsm) or to hypotonic medium (200 mOsm)±1 mM DPC (diphenylamine carboxylate). Cell volume was assessed by COULTER COUNTER™ electronic cell sizing over the time course shown, using TM cells in suspension. […] Data represent means of two experiments, error values shown are SEM, n=4 (two separate RVD runs per experiment).
Data represent means of two experiments, error values shown are SEM, n=4 (two separate RVD runs per experiment).

Another experiment addresses T1, Na—K—Cl co-transporter (Homo sapiens, UniProt P55011).
T1 construct: endogenous in cells; host or cells: cultured human trabecular meshwork (TM) cells, normal or glaucomatous donors
T1 sequence (P55011 1-1212): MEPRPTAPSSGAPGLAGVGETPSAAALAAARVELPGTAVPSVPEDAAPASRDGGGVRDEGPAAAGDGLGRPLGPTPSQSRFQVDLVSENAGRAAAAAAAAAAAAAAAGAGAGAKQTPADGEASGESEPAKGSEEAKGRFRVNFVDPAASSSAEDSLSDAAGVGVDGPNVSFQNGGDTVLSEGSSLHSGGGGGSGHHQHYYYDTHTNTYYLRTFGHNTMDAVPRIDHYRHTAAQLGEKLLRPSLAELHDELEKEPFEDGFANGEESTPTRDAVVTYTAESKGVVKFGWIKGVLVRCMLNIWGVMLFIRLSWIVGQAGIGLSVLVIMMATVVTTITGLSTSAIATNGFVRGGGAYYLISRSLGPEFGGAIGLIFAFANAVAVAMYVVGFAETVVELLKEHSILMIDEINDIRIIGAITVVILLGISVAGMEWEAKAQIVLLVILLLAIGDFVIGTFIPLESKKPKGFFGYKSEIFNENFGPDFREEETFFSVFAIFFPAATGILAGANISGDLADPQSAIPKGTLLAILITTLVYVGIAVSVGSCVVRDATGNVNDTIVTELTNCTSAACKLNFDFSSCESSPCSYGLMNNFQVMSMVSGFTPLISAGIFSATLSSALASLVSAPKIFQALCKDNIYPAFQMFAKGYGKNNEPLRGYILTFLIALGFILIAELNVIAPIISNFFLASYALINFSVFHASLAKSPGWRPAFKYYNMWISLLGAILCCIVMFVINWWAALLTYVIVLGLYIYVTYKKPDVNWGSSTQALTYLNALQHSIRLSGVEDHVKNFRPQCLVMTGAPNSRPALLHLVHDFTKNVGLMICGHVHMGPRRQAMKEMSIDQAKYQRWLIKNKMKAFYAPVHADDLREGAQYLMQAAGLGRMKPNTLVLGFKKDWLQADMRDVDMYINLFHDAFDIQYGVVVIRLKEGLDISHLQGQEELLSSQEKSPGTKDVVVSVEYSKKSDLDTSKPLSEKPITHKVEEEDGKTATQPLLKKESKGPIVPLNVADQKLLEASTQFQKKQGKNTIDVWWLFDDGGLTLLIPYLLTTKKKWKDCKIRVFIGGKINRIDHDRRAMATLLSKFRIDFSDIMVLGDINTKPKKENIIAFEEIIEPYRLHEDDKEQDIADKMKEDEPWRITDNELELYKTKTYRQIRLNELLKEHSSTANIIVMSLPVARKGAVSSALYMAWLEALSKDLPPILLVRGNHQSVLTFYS
Kind of experiment: Na—K—Cl co-transport measured as bumetamide-sensitive K influx (86Rb tracer) in human TM cell monolayers. The class given is cell-based. The protocol:
Na—K—Cl co-transport was measured as ouabain-insensitive, bumetamide-sensitive potassium influx, using ^86Rb as a tracer for potassium. […] The assay medium also contained ^86Rb (1 μCi/ml) (Dupont New England Nuclear, Boston, Mass.). The assay was terminated by rinsing the wells with ice-cold isotonic MgCl2, then extracting the contents with 0.2% sodium dodecyl sulfate (SDS), and determining the amount of radioactive contents by liquid scintillation. Osmolarities of all preincubation and assay media were verified by osmometry (Model 3W2, Advanced Instruments, Norwood, Mass.).
The cells were pretreated with Hepes-buffered minimal essential medium (MEM) ±10 μM bumetamide ±1 mM ouabain for 5 min, then assayed for 5 min in the same media plus ^86Rb. […] Data are means ±SEM, n=12.
Na—K—Cl co-transport activity of glaucomatous human TM cells was assessed as ouabain-insensitive, bumetamide-sensitive K influx, using ^86Rb as a tracer for K, as described previously. TM cells were preincubated for 5 minutes in a Hepes-buffered MEM containing 0 or 10 μM bumetamide in the presence of 1 mM ouabain, followed by a 5 minute assay in media of identical composition except that they also contained ^86Rb. […] Data are mean values ±SEM in seven normal TM cultures (donor age range, 38-68 years, n=12 in each cell culture) and in seven glaucomatous cultures (donor age range 41-75 years, n=7 in each cell culture).
Human TM cells were equilibrated in Hepes-buffered MEM for 30 minutes and then pretreated for 5 minutes in media containing 1 mM ouabain, 10 or 0 μM bumetamide, and 0.3 μM to 1 mM niflumic acid (NA). Cells were then assayed for bumetamide-sensitive K influx for 5 minutes in media identical to the pretreatment media but also containing ^86Rb (1 μCi/ml). […] Dashed line indicates control level of Na—K—Cl co-transport. Data are means ±SEM of at least 4 determinations from 3 experiments.

The subject of experiment [3] is perfused human anterior chambers. Kind of experiment: Outflow facility of perfused human anterior chambers. Conditions: perfused with bumetamide. The source says:
The effect is expected to be transient because after the initial cell shrinkage, the co-transporter is activated to restore volume in the TM cells and, thus, the cell shrinkage is only transient. […] Here again, the cells rapidly respond to altered volume, in this case by activating ion efflux pathways to decrease volume of the cells to normal.

Experiment [4] relates to human TM cells. Kind of experiment: Intracellular volume of human TM cells (14C-urea/14C-sucrose water space or COULTER COUNTER electronic cell sizing), isotonic medium. It counts as cell-based. The settings on record: for reduction in intracellular volume: human TM cells, 10 μM bumetamide, isotonic conditions; for TM cell volume: hormones and intracellular regulators acting on the co-transporter. The protocol: The intracellular volume of human and bovine TM cells was evaluated by two methods: 1) radioisotopic evaluation of TM monolayer intracellular water space using ^14C-urea and ^14C-sucrose as markers of total and extracellular space, respectively; and 2) electronic cell sizing of suspended TM cells, using a COULTER COUNTER™ assay (Coulter Electronics, Ltd., Hialeah, Fla.). Details of these methods have been described previously by O'Donnell (O'Donnell, M. E., supra, 1993) the entirety of which is incorporated herein by reference.
By the first method, cell monolayers were preequilibrated for 30 minutes in Hepes MEM at 37° C. in an air atmosphere, then incubated for 20 minutes in Hepes MEM containing 0 or 10 μM bumetamide, ethacrynic acid, or other agents to be tested, and finally incubated for 10 minutes in the same medium containing either ^14C-urea or ^14C-sucrose (both at 1 μCi/ml). Monolayers were then rinsed with isotonic ice-cold MgCl2 and radioactivity of SDS extracts determined by liquid scintillation. Specific activities (counts per minute/ml) of ^14C-urea and ^14C-sucrose in the assay medium were determined and used to calculate water space associated with trapped radioactivity (expressed as μl/mg protein. Intracellular volume was calculated as the difference between the water space determined for ^14C-urea (a marker for intracellular plus trapped extracellular space) and ^14C-sucrose (a marker for trapped extracellular space).
as §1
Human TM cells were exposed to isotonic medium ±niflumic acid (10 or 100 μM)±10 μM bumetamide. Cell volume was assessed by COULTER COUNTER™ electronic cell sizing over the time course shown, using TM cells in suspension. Note that niflumic acid (NA) alone decreases volume of the TM cells and that exposing the cells to NA plus bumetamide causes a further decrease in TM cell volume. Data represent means of two experiments (all conditions shown tested in both experiments).

“Also recorded” adds a separate entry of the source.

For `O=C(O)c1cc([N+](=O)[O-])ccc1NCCCc1ccccc1` [NPPB], the “swelling-activated (hypotonic medium-induced) ion conductance” value in the experiment with human TM cells [1] (NPPB 100 μM) is recorded as “blocked; also recorded: abolished”.
Regarding `O=S(=O)(O)c1cc(N=C=S)ccc1C=Cc1ccc(N=C=S)cc1S(=O)(=O)O` [DIDS, 4,4′-diisothiocyanostilbene-2,2′-disulfonic acid], the “regulatory volume decrease (RVD)” value in the experiment on human TM cells [2] is “attenuated; also recorded: reduced”. Besides, the “swelling-activated (hypotonic medium-induced) ion conductance” value with human TM cells [1] (DIDS 1 mM) is reported as “does not increase; also recorded: abolished; also recorded: blocked”.
`O=C(O)c1ccccc1Nc1ccccc1` [DPC, diphenylamine carboxylate]: the “regulatory volume decrease (RVD)” value with human TM cells [2] is reported as “attenuated”.
With `CCCCNc1cc(C(=O)O)cc(S(N)(=O)=O)c1Oc1ccccc1` [bumetamide], at Na—K—Cl co-transporter (human TM cells, 10 μM bumetamide, 86Rb tracer), the “total K influx in TM cells” value was “blocks a substantial portion”. Further, the outflow facility result in experiment [3] is reported as “sustained elevation”. The “reduction in intracellular volume” value is given as 12±4% in the experiment on human TM cells [4] (30 minute exposure) and 25±6% in the experiment on human TM cells [4] (60 minute exposure). For the same compound, in the experiment with human TM cells [4] (normal and glaucomatous human TM cells exposed to bumetamide), the “cell volume of normal and glaucomatous TM cells” value is given as “decreased”.
Regarding `CC[N+](CC)(CC)CC` [TEA, tetraethylammonium], the “regulatory volume decrease (RVD)” value with human TM cells [2] is reported as “diminished”. For the same compound, the “niflumic acid-activated TM cell conductance” value with human TM cells [1] (niflumic acid 100 μM plus K channel blocker TEA 1 mM) is on record as “abolished”.
`NC[C@H](O)c1ccc(O)c(O)c1` [norepinephrine]: the TM cell volume entry in the experiment on human TM cells [4] is reported as “reduce”.
Turning to `NS(=O)(=O)c1cc(C(=O)O)c(NCc2ccco2)cc1Cl` [furosemide], the “regulatory volume decrease (RVD)” value with human TM cells [2] is “no effect”.
In the case of `Nc1ncnc2c1ncn2[C@@H]1O[C@@H]2COP(=O)(O)O[C@H]2[C@H]1O` [cyclic AMP], on Na—K—Cl co-transporter (glaucomatous human TM cells), the “inhibition of Na—K—Cl co-transporter of glaucomatous TM cells” value is “insensitive”. Moreover, the TM cell volume result in the experiment on human TM cells [4] is “reduce”.
